Reference: article PMC12799524, “Putative new biomarkers for renal transporter-mediated drug-drug interactions: Characterization as substrates of organic cation transporter 2, multidrug and toxin extrusion protein 1, and other important drug transporters” (Drug Metabolism and Disposition, 2025)

Key:
[1] = molecular target: T1, human OATP1B3 (Homo sapiens, UniProt Q9NPD5); test: Uptake assay in HEK-OATP1B3 vs HEK-VC cells; type: in vitro ADME
T1 construct: expressed in transfected cells; host or cells: HEK293 (HEK-OATP1B3)
T1 sequence (Q9NPD5 1-702): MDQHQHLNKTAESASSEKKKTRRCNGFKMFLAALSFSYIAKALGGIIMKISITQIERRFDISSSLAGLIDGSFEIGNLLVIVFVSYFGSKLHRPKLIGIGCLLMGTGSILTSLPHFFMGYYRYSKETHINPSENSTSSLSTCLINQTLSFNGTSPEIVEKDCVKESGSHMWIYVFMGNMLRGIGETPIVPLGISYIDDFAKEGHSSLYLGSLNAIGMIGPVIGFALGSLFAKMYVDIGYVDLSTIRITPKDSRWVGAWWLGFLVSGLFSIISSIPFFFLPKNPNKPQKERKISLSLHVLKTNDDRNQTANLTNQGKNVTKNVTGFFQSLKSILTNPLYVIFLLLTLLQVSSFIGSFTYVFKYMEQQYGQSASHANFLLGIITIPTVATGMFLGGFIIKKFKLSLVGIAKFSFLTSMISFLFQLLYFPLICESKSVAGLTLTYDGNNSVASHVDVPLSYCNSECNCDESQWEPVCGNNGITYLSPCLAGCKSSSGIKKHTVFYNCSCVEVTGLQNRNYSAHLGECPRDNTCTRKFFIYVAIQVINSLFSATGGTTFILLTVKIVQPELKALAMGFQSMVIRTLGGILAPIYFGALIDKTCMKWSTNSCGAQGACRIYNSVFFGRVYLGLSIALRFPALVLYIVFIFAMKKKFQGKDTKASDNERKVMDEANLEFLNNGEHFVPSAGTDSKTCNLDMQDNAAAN
Protocol: (§1) Transport experiments were performed 48 hours after seeding.

[2] = cited from earlier work
[3] = molecular target: P-gp (Homo sapiens, UniProt P08183); test: Intracellular accumulation and basal to apical transport in Caco-2 cells with/without valspodar; conditions: for In Vitro P-gp (substrate class): Caco-2 cells, valspodar
Protocol: The intracellular accumulation and transcellular, basal to apical transport experiments were performed as previously described in monolayers of polarized single-transfected (MDCK-OCT2, MDCK-MATE1) and double-transfected (MDCK-OCT2-MATE1) MDCK cells, MDCK control cells (MDCK-VC), or Caco-2 cells.[22] In brief, cell monolayers were grown in cell culture inserts on porous membranes. For MDCK-VC, MDCK-OCT2 and Caco-2, 5 × 10^5 cells were used per well; for MDCK-OCT2-MATE1, 6 × 10^5 cells were used, and for MDCK-MATE1, 8 × 10^5 cells were used per well. Cells were grown to confluence for 72 hours, induced with 10 mM sodium butyrate 48 hours after seeding for 24 hours (MDCK only), and subsequently used for transport experiments.
In general, after the cell culture medium was removed from both sides of the monolayers, cells were washed at 37 °C with transport buffer of the same composition as described in the previous section. Experiments were started by replacing the medium in the basal compartment with medium containing the putative biomarkers or [^3H]-labeled positive control substrates. The pH of the buffer on the basal side was 7.3 and 6.5 on the apical side for MDCK cells, whereas it was 7.3 on either side for Caco-2 cells. Cells were incubated at 37 °C and the buffer from the apical compartment was taken after 60 minutes for MDCK cells and after 240 minutes for Caco-2 cells. In case of Caco-2 cells, endogenous P-gp was inhibited by adding 2 μM of valspodar to the basal compartment. To measure the cellular accumulation of the test compounds, the remaining medium was removed at the end of the incubation period and the cell monolayers were rapidly rinsed 3 times with ice-cold 0.9% NaCl in water. Filters were detached from the chambers and placed into 500 μL of 80% MeOH containing the aforementioned recovery standards to lyse cells for subsequent LC-MS analysis or into 600 μL of 0.2% SDS (control experiments only). In the control experiments, the radioactivity of the collected apical medium and the solubilized cell monolayers and protein concentrations of the cell lysates were measured in the same way as described for the experiments with HEK cells.
(§2) The intracellular background of all 5 compounds in HEK cells at the beginning of the uptake experiments was investigated 48 hours after seeding without incubation with transport buffer (ie, 0 minutes). […] Then, cells were lysed with ice-cold 80% MeOH containing the aforementioned recovery standards. In addition, the impact of a 5-minute incubation period with transport buffer without added substance was investigated.

[4] = molecular target: T2, human OCT2 (Homo sapiens, UniProt O15244); test: Uptake assay in HEK-OCT2 vs HEK-VC cells; type: in vitro ADME; set-up: expressed in transfected cells; host or cells: HEK293 (HEK-OCT2); conditions: for Uptake in HEK-OCT2 cells compared to HEK-VC cells (in words) / Effect of cimetidine on uptake in HEK-OCT2 cells: 10 and 100 μM substrate; for Effect of cimetidine on uptake in HEK-OCT2 cells: cimetidine 50 μM; for In Vitro OCT2 (substrate class): summary of in vitro uptake/transport results
T2 sequence (O15244 1-555): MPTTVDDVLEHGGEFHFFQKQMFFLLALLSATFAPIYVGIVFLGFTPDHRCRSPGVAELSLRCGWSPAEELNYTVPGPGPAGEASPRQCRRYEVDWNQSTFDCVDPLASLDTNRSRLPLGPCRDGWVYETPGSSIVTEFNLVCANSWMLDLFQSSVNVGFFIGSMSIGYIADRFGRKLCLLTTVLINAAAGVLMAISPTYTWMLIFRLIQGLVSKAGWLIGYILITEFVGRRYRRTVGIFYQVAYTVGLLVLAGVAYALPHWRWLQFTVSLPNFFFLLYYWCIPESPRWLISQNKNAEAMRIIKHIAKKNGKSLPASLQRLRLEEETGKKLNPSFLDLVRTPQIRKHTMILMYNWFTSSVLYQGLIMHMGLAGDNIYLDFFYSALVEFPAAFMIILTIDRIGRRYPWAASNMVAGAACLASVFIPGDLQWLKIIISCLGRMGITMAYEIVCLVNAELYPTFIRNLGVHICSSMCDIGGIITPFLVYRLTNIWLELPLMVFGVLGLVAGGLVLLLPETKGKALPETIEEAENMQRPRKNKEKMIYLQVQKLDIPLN
Protocol: as §1, §2

[5] = 10 μM substrate, 240 minutes, valspodar 2 μM
[6] = 10 μM substrate, 5 minutes, HEK-VC set to 100%

Chain of P-gp (P08183 whole entry): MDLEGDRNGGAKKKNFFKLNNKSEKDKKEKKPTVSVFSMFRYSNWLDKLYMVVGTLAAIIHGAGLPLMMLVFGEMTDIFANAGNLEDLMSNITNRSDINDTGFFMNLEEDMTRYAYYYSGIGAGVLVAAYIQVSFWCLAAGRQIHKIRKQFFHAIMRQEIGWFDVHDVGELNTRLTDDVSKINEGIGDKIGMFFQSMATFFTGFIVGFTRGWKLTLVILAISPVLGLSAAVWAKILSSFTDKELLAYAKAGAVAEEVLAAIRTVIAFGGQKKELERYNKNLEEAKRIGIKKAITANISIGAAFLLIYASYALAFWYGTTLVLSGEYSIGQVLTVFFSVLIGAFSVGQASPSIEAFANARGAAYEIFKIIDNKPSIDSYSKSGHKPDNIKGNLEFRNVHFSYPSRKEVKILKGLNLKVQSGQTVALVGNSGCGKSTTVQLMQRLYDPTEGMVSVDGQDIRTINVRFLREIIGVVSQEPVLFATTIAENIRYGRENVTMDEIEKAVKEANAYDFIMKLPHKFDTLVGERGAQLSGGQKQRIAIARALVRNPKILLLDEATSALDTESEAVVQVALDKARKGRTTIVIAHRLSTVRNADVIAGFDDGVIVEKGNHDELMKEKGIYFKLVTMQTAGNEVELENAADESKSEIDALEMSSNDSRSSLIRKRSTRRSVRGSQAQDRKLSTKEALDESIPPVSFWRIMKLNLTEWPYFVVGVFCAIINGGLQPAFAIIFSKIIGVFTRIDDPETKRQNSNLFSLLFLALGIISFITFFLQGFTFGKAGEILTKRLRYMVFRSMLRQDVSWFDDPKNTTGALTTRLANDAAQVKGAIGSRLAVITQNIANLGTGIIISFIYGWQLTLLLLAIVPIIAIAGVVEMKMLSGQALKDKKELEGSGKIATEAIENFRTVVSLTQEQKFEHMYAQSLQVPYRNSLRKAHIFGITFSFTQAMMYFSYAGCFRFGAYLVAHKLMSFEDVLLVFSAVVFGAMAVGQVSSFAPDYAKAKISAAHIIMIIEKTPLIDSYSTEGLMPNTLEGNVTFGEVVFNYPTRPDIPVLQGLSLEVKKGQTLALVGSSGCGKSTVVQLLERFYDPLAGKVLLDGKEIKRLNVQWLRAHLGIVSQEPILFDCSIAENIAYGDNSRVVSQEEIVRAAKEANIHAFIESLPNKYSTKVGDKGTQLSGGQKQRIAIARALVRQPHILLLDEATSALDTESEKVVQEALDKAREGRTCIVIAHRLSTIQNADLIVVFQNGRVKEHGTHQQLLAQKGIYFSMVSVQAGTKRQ

SMILES: NCCc1c[nH]c2ccc(O)cc12 [Serotonin, serotonin]
- In Vitro OATP1B3 (substrate class) [1]: -
- Urinary excretion ([2]; healthy subjects): 0.21 ± 0.08 nmol/mL/mg creatinine
- Effect of valspodar on basal to apical translocation in Caco-2 cells [3, 5]: no significant effect
- In Vitro P-gp (substrate class) [3]: -
- Uptake in HEK-OCT2 cells compared to HEK-VC cells [4, 6]: 3960%
- Uptake ratio in HEK-OCT2 cells compared to HEK-VC cells ([4]; 100 μM substrate, 5 minutes, HEK-VC set to 100%): 6281%
- Uptake in HEK-OCT2 cells compared to HEK-VC cells (in words) ([4]; 5 minutes): significantly higher
- Effect of cimetidine on uptake in HEK-OCT2 cells ([4]; 5 minutes): significantly reduced
- In Vitro OCT2 (substrate class) [4]: ++

SMILES: NCCc1ccc(O)cc1 [Tyramine, tyramine]
- In Vitro OATP1B3 (substrate class) [1]: -
- Renal clearance ([2]; healthy volunteers, after oral administration of 400 mg tyramine): 260 mL/min
- Effect of valspodar on basal to apical translocation in Caco-2 cells [3, 5]: no significant effect
- In Vitro P-gp (substrate class) [3]: -
- Uptake in HEK-OCT2 cells compared to HEK-VC cells [4, 6]: 3245%
- Uptake in HEK-OCT2 cells compared to HEK-VC cells (in words) ([4]; 5 minutes): significantly higher
- Effect of cimetidine on uptake in HEK-OCT2 cells ([4]; 5 minutes): significantly reduced
- In Vitro OCT2 (substrate class) [4]: ++

SMILES: Cn1cnc(CCN)c1 [1-Methylhistamine, 1-methylhistamine]
- In Vitro OATP1B3 (substrate class) [1]: -
- Mean urinary excretion ([2]; healthy individuals): around 120 μg/g creatinine
- Effect of valspodar on basal to apical translocation in Caco-2 cells [3, 5]: significantly reduced
- Transcellular transport in Caco-2 cells with valspodar, of the respective control ([3]; 10 μM substrate, 240 minutes, valspodar 2 μM, without valspodar set to 100%): 67%
- In Vitro P-gp (substrate class) [3]: 0 (significant uptake in HEK cells, but less than 300% of respective control cells or significant reduction of transcellular transport in Caco-2 cells, but reduction not below 50% of respective control without valspodar)

SMILES: C[N+](C)(C)CCCCC(=O)[O-] [5-Amino valeric acid betaine, 5-amino valeric acid betaine]
- In Vitro OATP1B3 (substrate class) [1]: 0 (significant uptake in HEK cells, but less than 300% of respective control cells or significant reduction of transcellular transport in Caco-2 cells, but reduction not below 50% of respective control without valspodar)
- Effect of valspodar on basal to apical translocation in Caco-2 cells [3, 5]: no significant effect
- In Vitro P-gp (substrate class) [3]: -
- Intracellular background in HEK-OCT2 cells compared to HEK-VC cells ([4]; 0 minutes, without added substance): lower
- Intracellular concentration in HEK-OCT2 cells compared to HEK-VC cells (in words) ([4]; 10 μM substrate, 5 minutes): comparable
- Intracellular concentration in HEK-OCT2 cells compared to HEK-VC cells (in words) ([4]; 100 μM substrate, 5 minutes): significantly higher
- Intracellular background in HEK-OCT2 cells compared to HEK-VC cells ([4]; 5 minutes in transport buffer without added substance): lower
- Effect of cimetidine on uptake in HEK-OCT2 cells ([4]; 5 minutes): significantly reduced
- In Vitro OCT2 (substrate class) [4]: +
